Measurements from patent publication US20260070945A1, “MACROCYCLIC IMMUNOMODULATORS” (Bristol-Myers Squibb Company, priority 2022, published 2026).
*1 amine or outer side, *2 acyl side, *3 side chain or, on linkers, in order; H or OH if unused. Where a SMILES comes first, the peptide text is derived from it. Bridges are numbered along the chain shown (N, C = ends). [ ]: non-standard residue; d: D form. The star is where a group is joined. ξ: configuration not given here. Phe(3-CF3) = N[C@@H](Cc1cccc(C(F)(F)F)c1)C(=O)O; Phe(4-COOH) = N[C@@H](Cc1ccc(C(=O)O)cc1)C(=O)O; d(γGlu) = O=C(O)[C@@H](CCC(=O)[*:2])N[*:1]; Bip = N[C@@H](Cc1ccc(-c2ccccc2)cc1)C(=O)O; NH(CH2)14COOH = O=C(O)CCCCCCCCCCCCCCN*; γGlu = O=C(O)[C@H](CCC(=O)[*:2])N[*:1]; NH(CH2)12COOH = O=C(O)CCCCCCCCCCCCN*; Val(3-OH) = CC(C)(O)[C@H](N)C(=O)O; 2Thi = N[C@@H](Cc1cccs1)C(=O)O; Cha = N[C@@H](CC1CCCCC1)C(=O)O; Ile(3ξ) = CCC(C)[C@H](N)C(=O)O; Carboxymethyl = O=C(O)C*; NMeA = CN[C@@H](C)C(=O)O; Dab = NCC[C@H](N)C(=O)O; AEEA = NCCOCCOCC(=O)O

What follows are molecules tested against T1, PD-1/PD-L1 interaction (PE-labeled human PD-L1-Ig binding to Jurkat cell line over-expressing human PD-1) (Homo sapiens, UniProt Q15116) (assay: Jurkat-PD-1 Cell Binding High-Content Screening Assay (CBA)). Conditions: PE-labeled PD-L1-Ig 20 nM final, Jurkat-hPD-1 cells; read-out: Jurkat HPD1 PDL1 IC50.
T1 construct: expressed in transfected cells; host or cells: Jurkat
T1 sequence (Q15116 25-288): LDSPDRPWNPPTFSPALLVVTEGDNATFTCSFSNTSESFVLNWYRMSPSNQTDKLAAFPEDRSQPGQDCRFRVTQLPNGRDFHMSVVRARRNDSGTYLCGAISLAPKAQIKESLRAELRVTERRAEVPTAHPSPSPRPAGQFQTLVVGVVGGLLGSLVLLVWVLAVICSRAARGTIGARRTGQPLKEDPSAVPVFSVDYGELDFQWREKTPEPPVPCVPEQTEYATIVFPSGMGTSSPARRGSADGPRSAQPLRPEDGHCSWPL
Outline: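 In this imaging assay, cells in 10% FCS medium see compound for 2 h at 37 °C and then labeled ligand at 20 nM final for 1 h. Paraformaldehyde fixation, Hoechst 33342 staining and dPBS washes precede image capture.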
In the case of CC(=O)NCCCC[C@@H]1NC(=O)[C@H](C(C)(C)O)NC(=O)[C@H](CC2CCCCC2)NC(=O)[C@H](CCN)NC(=O)[C@@H](CC(C)C)NC(=O)[C@H](C)N(C)C(=O)[C@H](CCC(N)=O)NC(=O)[C@H](Cc2ccc(-c3ccccc3)cc2)NC(=O)[C@H](Cc2ccc(OCC(=O)O)cc2)NC(=O)[C@H](Cc2cccc(C(F)(F)F)c2)NC(=O)[C@H](CC(=O)O)NC(=O)[C@H](Cc2ccc(OCC(=O)O)cc2)NC(=O)[C@H](CC(C)C)NC(=O)CSC[C@@H](C(=O)N[C@@H](CCN)C(=O)NCCCCCCCCCCCCC(=O)O)NC1=O [Example 2626] ({CH2CO}-LY(Carboxymethyl)D[Phe(3-CF3)]Y(Carboxymethyl)[Bip]Q[NMeA][dL][Dab][Cha][Val(3-OH)]K(Ac)C[Dab]-{NH(CH2)12COOH}; thioether N-14), the IC50 is reported as 9 nM.
For CC(C)C[C@H]1NC(=O)[C@H](C)N(C)C(=O)[C@H](CCC(N)=O)NC(=O)[C@H](Cc2ccc(-c3ccccc3)cc2)NC(=O)[C@H](Cc2ccc(OCC(=O)O)cc2)NC(=O)[C@H](Cc2cccc(C(F)(F)F)c2)NC(=O)[C@H](CC(=O)O)NC(=O)[C@H](Cc2ccc(OCC(=O)O)cc2)NC(=O)[C@H](Cc2ccc(OCC(=O)O)cc2)NC(=O)CSC[C@@H](C(=O)N[C@@H](CCN)C(=O)NCCOCCOCC(=O)NCCOCCOCC(=O)N[C@H](CCC(=O)NCCCCCCCCCCCCCCC(=O)O)C(=O)O)NC(=O)[C@H](Cc2cnc[nH]2)NC(=O)[C@H](C(C)(C)O)NC(=O)[C@H](CC2CCCCC2)NC(=O)[C@H](CCN)NC1=O [Example 2627] ({CH2CO}-Y(Carboxymethyl)Y(Carboxymethyl)D[Phe(3-CF3)]Y(Carboxymethyl)[Bip]Q[NMeA][dL][Dab][Cha][Val(3-OH)]HC[Dab][AEEA][AEEA][dE](NH(CH2)14COOH)-OH; thioether N-14), the IC50 was 164 nM.
Molecule CC(C)C[C@H]1NC(=O)[C@H](C)N(C)C(=O)[C@H](CCC(N)=O)NC(=O)[C@H](Cc2ccc(-c3ccccc3)cc2)NC(=O)[C@H](Cc2ccc(OCC(=O)O)cc2)NC(=O)[C@H](Cc2cccc(C(F)(F)F)c2)NC(=O)[C@H](CC(=O)O)NC(=O)[C@H](Cc2ccc(OCC(=O)O)cc2)NC(=O)[C@H](C)NC(=O)CSC[C@@H](C(=O)N[C@@H](CCN)C(=O)NCCOCCOCC(=O)NCCOCCOCC(=O)N[C@H](CCC(=O)NCCCCCCCCCCCCCCC(=O)O)C(=O)O)NC(=O)[C@H](Cc2cnc[nH]2)NC(=O)[C@H](C(C)(C)O)NC(=O)[C@H](CC2CCCCC2)NC(=O)[C@H](CCN)NC1=O [Example 2628] ({CH2CO}-AY(Carboxymethyl)D[Phe(3-CF3)]Y(Carboxymethyl)[Bip]Q[NMeA][dL][Dab][Cha][Val(3-OH)]HC[Dab][AEEA][AEEA][dE](NH(CH2)14COOH)-OH; thioether N-14) has an IC50 of 247 nM.
CC(C)C[C@H]1NC(=O)[C@H](C)N(C)C(=O)[C@H](CCC(N)=O)NC(=O)[C@H](Cc2ccc(-c3ccccc3)cc2)NC(=O)[C@H](Cc2ccc(OCC(=O)O)cc2)NC(=O)[C@H](Cc2cccc(C(F)(F)F)c2)NC(=O)[C@H](CC(=O)O)NC(=O)[C@H](Cc2ccc(OCC(=O)O)cc2)NC(=O)[C@H](C)NC(=O)CSC[C@@H](C(=O)N[C@@H](CCN)C(=O)NCCCCCCCCCCCCC(=O)O)NC(=O)[C@H](CCC(=O)O)NC(=O)[C@H](C(C)(C)O)NC(=O)[C@H](CC2CCCCC2)NC(=O)[C@H](CCN)NC1=O [Example 2629] ({CH2CO}-AY(Carboxymethyl)D[Phe(3-CF3)]Y(Carboxymethyl)[Bip]Q[NMeA][dL][Dab][Cha][Val(3-OH)]EC[Dab]-{NH(CH2)12COOH}; thioether N-14) showed an IC50 of 30.6 nM.
Work on CC(C)C[C@H]1NC(=O)[C@H](C)N(C)C(=O)[C@H](CCC(N)=O)NC(=O)[C@H](Cc2ccc(-c3ccccc3)cc2)NC(=O)[C@H](Cc2ccc(OCC(=O)O)cc2)NC(=O)[C@H](Cc2cccc(C(F)(F)F)c2)NC(=O)[C@H](CC(=O)O)NC(=O)[C@H](Cc2ccc(OCC(=O)O)cc2)NC(=O)[C@H](Cc2cnc[nH]2)NC(=O)CSC[C@@H](C(=O)N[C@@H](CCN)C(=O)NCCCCCCCCCCCCC(=O)O)NC(=O)[C@H](CCC(=O)O)NC(=O)[C@H](C(C)(C)O)NC(=O)[C@H](CC2CCCCC2)NC(=O)[C@H](CCN)NC1=O [Example 2630] ({CH2CO}-HY(Carboxymethyl)D[Phe(3-CF3)]Y(Carboxymethyl)[Bip]Q[NMeA][dL][Dab][Cha][Val(3-OH)]EC[Dab]-{NH(CH2)12COOH}; thioether N-14) yielded an IC50 of 9.5 nM.
CCC(C)[C@@H]1NC(=O)[C@H](Cc2ccc(-c3ccccc3)cc2)NC(=O)[C@H](C(C)C)NC(=O)[C@H](Cc2c[nH]c3ccccc23)NC(=O)[C@H](CC(=O)O)NC(=O)[C@H](Cc2ccc(C(=O)O)cc2)NC(=O)[C@H](Cc2cnc[nH]2)NC(=O)CSC[C@@H](C(=O)N[C@@H](CCN)C(=O)NCCOCCOCC(=O)NCCCCCCCCCCCCC(=O)O)NC(=O)[C@H](CCC(=O)O)NC(=O)[C@H](C(C)(C)O)NC(=O)[C@H](CC2CCCCC2)NC(=O)[C@H](CCN)NC(=O)[C@@H](CC(C)C)NC(=O)[C@H](C)N(C)C1=O (stereo partly drawn) [Example 2631] ({CH2CO}-H[Phe(4-COOH)]DWV[Bip][Ile(3ξ)][NMeA][dL][Dab][Cha][Val(3-OH)]EC[Dab][AEEA]-{NH(CH2)12COOH}; thioether N-14) showed an IC50 of 15.5 nM.
CCC(C)[C@@H]1NC(=O)[C@H](Cc2ccc(-c3ccccc3)cc2)NC(=O)[C@H](C(C)C)NC(=O)[C@H](Cc2c[nH]c3ccccc23)NC(=O)[C@H](CC(=O)O)NC(=O)[C@H](Cc2ccc(C(=O)O)cc2)NC(=O)[C@H](Cc2cnc[nH]2)NC(=O)CSC[C@@H](C(=O)N[C@@H](CCN)C(=O)N[C@@H](CCC(=O)NCCCCCCCCCCCCC(=O)O)C(=O)O)NC(=O)[C@H](CCC(=O)O)NC(=O)[C@H](C(C)(C)O)NC(=O)[C@H](CC2CCCCC2)NC(=O)[C@H](CCN)NC(=O)[C@@H](CC(C)C)NC(=O)[C@H](C)N(C)C1=O (stereo partly drawn) [Example 2632] ({CH2CO}-H[Phe(4-COOH)]DWV[Bip][Ile(3ξ)][NMeA][dL][Dab][Cha][Val(3-OH)]EC[Dab]E(NH(CH2)12COOH)-OH; thioether N-14) was tested, and the IC50 was 24.9 nM.
In the case of CCC(C)[C@@H]1NC(=O)[C@H](Cc2ccc(-c3ccccc3)cc2)NC(=O)[C@H](C(C)C)NC(=O)[C@H](Cc2c[nH]c3ccccc23)NC(=O)[C@H](CC(=O)O)NC(=O)[C@H](Cc2ccc(C(=O)O)cc2)NC(=O)[C@H](Cc2cnc[nH]2)NC(=O)CSC[C@@H](C(=O)N[C@@H](CCN)C(=O)NCCOCCOCC(=O)N[C@@H](CCC(=O)NCCCCCCCCCCCCCCC(=O)O)C(=O)O)NC(=O)[C@H](CCC(=O)O)NC(=O)[C@H](C(C)(C)O)NC(=O)[C@H](CC2CCCCC2)NC(=O)[C@H](CCN)NC(=O)[C@@H](CC(C)C)NC(=O)[C@H](C)N(C)C1=O (stereo partly drawn) [Example 2633] ({CH2CO}-H[Phe(4-COOH)]DWV[Bip][Ile(3ξ)][NMeA][dL][Dab][Cha][Val(3-OH)]EC[Dab][AEEA]E(NH(CH2)14COOH)-OH; thioether N-14), the IC50 is reported as 207 nM.
Work on CCC(C)[C@@H]1NC(=O)[C@H](Cc2ccc(-c3ccccc3)cc2)NC(=O)[C@H](C(C)C)NC(=O)[C@H](Cc2c[nH]c3ccccc23)NC(=O)[C@H](CC(=O)O)NC(=O)[C@H](Cc2ccc(C(=O)O)cc2)NC(=O)[C@H](Cc2cnc[nH]2)NC(=O)CSC[C@@H](C(=O)N[C@@H](CCN)C(=O)NCCOCCOCC(=O)N[C@@H](CCC(=O)N[C@H](CCC(=O)NCCCCCCCCCCCCCCC(=O)O)C(=O)O)C(=O)O)NC(=O)[C@H](CCC(=O)O)NC(=O)[C@H](C(C)(C)O)NC(=O)[C@H](CC2CCCCC2)NC(=O)[C@H](CCN)NC(=O)[C@@H](CC(C)C)NC(=O)[C@H](C)N(C)C1=O (stereo partly drawn) [Example 2634] ({CH2CO}-H[Phe(4-COOH)]DWV[Bip][Ile(3ξ)][NMeA][dL][Dab][Cha][Val(3-OH)]EC[Dab][AEEA][γGlu][d(γGlu)]-{NH(CH2)14COOH}; thioether N-14) yielded an IC50 of 188 nM.
Work on CCC(C)[C@@H]1NC(=O)[C@H](Cc2ccc(-c3ccccc3)cc2)NC(=O)[C@H](C(C)C)NC(=O)[C@H](Cc2c[nH]c3ccccc23)NC(=O)[C@H](CC(=O)O)NC(=O)[C@H](Cc2ccc(C(=O)O)cc2)NC(=O)[C@H](Cc2cnc[nH]2)NC(=O)CSC[C@@H](C(=O)N[C@@H](CCN)C(=O)NCCOCCOCC(=O)N[C@@H](CCC(=O)NCCOCCOCC(=O)NCCCCCCCCCCCCCCC(=O)O)C(=O)O)NC(=O)[C@H](CCC(=O)O)NC(=O)[C@H](C(C)(C)O)NC(=O)[C@H](CC2CCCCC2)NC(=O)[C@H](CCN)NC(=O)[C@@H](CC(C)C)NC(=O)[C@H](C)N(C)C1=O (stereo partly drawn) [Example 2635] ({CH2CO}-H[Phe(4-COOH)]DWV[Bip][Ile(3ξ)][NMeA][dL][Dab][Cha][Val(3-OH)]EC[Dab][AEEA][γGlu][AEEA]-{NH(CH2)14COOH}; thioether N-14) yielded an IC50 of 105 nM.
CC(C)C[C@H]1NC(=O)[C@H](C)N(C)C(=O)[C@H](Cc2ccc(C(=O)O)cc2)NC(=O)[C@H](Cc2ccc(-c3ccccc3)cc2)NC(=O)[C@H](Cc2ccc(OCC(=O)O)cc2)NC(=O)[C@H](Cc2cccc(C(F)(F)F)c2)NC(=O)[C@H](CC(=O)O)NC(=O)[C@H](Cc2ccc(OCC(=O)O)cc2)NC(=O)[C@H](Cc2cccs2)NC(=O)CSC[C@@H](C(=O)N[C@@H](CCN)C(=O)NCCCCCCCCCCCCC(=O)O)NC(=O)[C@H](Cc2cnc[nH]2)NC(=O)[C@H](C(C)(C)O)NC(=O)[C@H](CC2CCCCC2)NC(=O)[C@H](CCN)NC1=O [Example 2636] ({CH2CO}-[2Thi]Y(Carboxymethyl)D[Phe(3-CF3)]Y(Carboxymethyl)[Bip][Phe(4-COOH)][NMeA][dL][Dab][Cha][Val(3-OH)]HC[Dab]-{NH(CH2)12COOH}; thioether N-14) gave an IC50 of 136 nM.
